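In this assay, cells in 96-well plates receive the compound at five concentrations for 48 hours. Endpoints are linearly interpolated between the surrounding concentrations. The concentration for 50% growth inhibition is given as GI50.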 Activity calls are given as the source filed them. Cut-off read from the data, not from the text of the source: active = GI50 up to about 1.1 µM and inactive = higher.
Columns and labels:
Assay in all cases: NCI anticancer screen, dose series, 48 h
[1] = system: NCI-H460
[2] = system: OVCAR-3
[3] = system: UACC-257
[4] = system: TK-10
[5] = system: SK-OV-3
[6] = system: HOP-62
[7] = system: SF-268
[8] = system: SNB-19
[9] = system: EKVX
[10] = system: SNB-75
[11] = system: SK-MEL-5
[12] = system: SK-MEL-2
[13] = system: HCT-15
[14] = system: OVCAR-5
[15] = system: MOLT-4
[16] = system: U-251
[17] = system: HCT-116
[18] = system: K562

Structure (SMILES) | GI50 [1] | GI50 [2] | GI50 [3] | GI50 [4] | GI50 [5] | GI50 [6] | GI50 [7] | GI50 [8] | GI50 [9] | GI50 [10] | GI50 [11] | GI50 [12] | GI50 [13] | GI50 [14] | GI50 [15] | GI50 [16] | GI50 [17] | GI50 [18]
N#CC(C(=O)/C(=N/NC(=O)c1ccccc1O)C(C#N)c1ccc(Br)cc1)c1ccc(Br)cc1 (stereo not drawn) | 14.2 µM (inactive) | 13.5 µM (inactive) | 15.1 µM (inactive) | 24.4 µM (inactive) | 36.8 µM (inactive) | 14.4 µM (inactive) | > 10 µM (inactive) | 11.6 µM (inactive) | 15.6 µM (inactive) | 2.99 µM (inactive) | 9.55 µM (inactive) | 12.2 µM (inactive) | 9.08 µM | 15.7 µM (inactive) | 3.93 µM (inactive) | 11.6 µM (inactive) | 12.9 µM (inactive) | 5.74 µM (inactive)
COc1ccc(/C=C(/C(=O)O)c2cc(OC)c(OC)c(OC)c2)cc1 | 48.1 µM (inactive) | 23.7 µM (inactive) | 31.5 µM (inactive) |  | > 100 µM (inactive) | 35 µM (inactive) | 70.1 µM (inactive) | 59.4 µM (inactive) | > 100 µM (inactive) | 21.6 µM (inactive) | 41.1 µM (inactive) | 47.5 µM (inactive) |  | > 100 µM (inactive) | 45.4 µM (inactive) | 35.2 µM (inactive) | 53.3 µM (inactive) | 38.5 µM (inactive)
NC(=O)C(c1ccccc1)N1CCOCC1 (stereo not drawn) | > 100 µM (inactive) | > 100 µM (inactive) | > 100 µM (inactive) | > 100 µM (inactive) | > 100 µM (inactive) | > 100 µM (inactive) | > 100 µM (inactive) |  |  | > 100 µM (inactive) | > 100 µM (inactive) | > 100 µM (inactive) | > 100 µM | > 100 µM (inactive) | > 100 µM (inactive) | > 100 µM (inactive) | > 100 µM (inactive) | > 100 µM (inactive)
CCc1ccccc1NC(=O)/C(=N/O)C(C)=O | > 100 µM (inactive) | > 100 µM (inactive) | > 100 µM (inactive) | > 100 µM (inactive) | > 100 µM (inactive) | > 100 µM (inactive) | > 100 µM (inactive) | > 100 µM (inactive) | > 100 µM (inactive) | > 100 µM (inactive) | > 100 µM (inactive) | > 100 µM (inactive) | > 100 µM |  | > 100 µM (inactive) | > 100 µM (inactive) | > 100 µM (inactive) | > 100 µM (inactive)
CN(CN1C(=O)C2Cc3ccccc3CN2C1=O)c1ccccn1 (stereo not drawn) | > 100 µM (inactive) | > 100 µM (inactive) |  | > 100 µM (inactive) |  | > 100 µM (inactive) | > 100 µM (inactive) | > 100 µM (inactive) |  |  | > 100 µM (inactive) | > 100 µM (inactive) | > 100 µM | > 100 µM (inactive) | > 100 µM (inactive) | > 100 µM (inactive) |  | > 100 µM (inactive)
Cc1cccc(C)c1NC(=O)C1C(=O)N(c2c(C)cccc2C)C(=O)/C1=N\N (stereo not drawn) |  | > 100 µM (inactive) | > 100 µM (inactive) | > 100 µM (inactive) | > 100 µM (inactive) | > 100 µM (inactive) | > 100 µM (inactive) | > 100 µM (inactive) | > 100 µM (inactive) | > 100 µM (inactive) | > 100 µM (inactive) | > 100 µM (inactive) | > 100 µM | > 100 µM (inactive) | > 100 µM (inactive) | > 100 µM (inactive) | > 100 µM (inactive) | > 100 µM (inactive)
CC(=O)O[C@@]1(C)[C@@H](C)C(=O)O[C@@H]2CCN3CC=C(COC(=O)[C@]1(C)O)[C@H]23 | > 100 µM (inactive) | > 100 µM (inactive) | > 100 µM (inactive) | > 100 µM (inactive) |  | > 100 µM (inactive) | > 100 µM (inactive) | > 100 µM (inactive) |  | 41 µM (inactive) | > 100 µM (inactive) | > 100 µM (inactive) | > 100 µM | > 100 µM (inactive) | > 100 µM (inactive) | > 100 µM (inactive) | > 100 µM (inactive) | > 100 µM (inactive)
CC1(C)N=C(c2ccccn2)C(c2ccccn2)=NC1(C)C | > 100 µM (inactive) | > 100 µM (inactive) | > 100 µM (inactive) |  |  |  | > 100 µM (inactive) | > 100 µM (inactive) | > 100 µM (inactive) |  | > 100 µM (inactive) | > 100 µM (inactive) | > 100 µM | > 100 µM (inactive) | > 100 µM (inactive) | > 100 µM (inactive) | > 100 µM (inactive) | > 100 µM (inactive)
CC(=O)OCC1OC(OC2C(COC(C)=O)OC(Sc3ccccc3C)C(OC(C)=O)C2OC(C)=O)C(OC(C)=O)C(OC(C)=O)C1OC(C)=O (stereo not drawn) | > 100 µM (inactive) |  | > 100 µM (inactive) | > 100 µM (inactive) | > 100 µM (inactive) | > 100 µM (inactive) | > 100 µM (inactive) | > 100 µM (inactive) | > 100 µM (inactive) | > 100 µM (inactive) | > 100 µM (inactive) | > 100 µM (inactive) | > 100 µM | > 100 µM (inactive) | > 100 µM (inactive) | > 100 µM (inactive) | > 100 µM (inactive) | > 100 µM (inactive)
O=C(Cc1nc2ccccc2s1)C(=O)Nc1cccc(Cl)c1 |  | > 100 µM (inactive) | > 100 µM (inactive) | > 100 µM (inactive) | > 100 µM (inactive) | > 100 µM (inactive) | > 100 µM (inactive) | > 100 µM (inactive) | > 100 µM (inactive) | 48.9 µM (inactive) | > 100 µM (inactive) | > 100 µM (inactive) | > 100 µM | > 100 µM (inactive) |  | > 100 µM (inactive) | > 100 µM (inactive) | > 100 µM (inactive)
CC1CCCP(=O)(c2ccccc2)CCC1 (stereo not drawn) | > 100 µM (inactive) | > 100 µM (inactive) | > 100 µM (inactive) | > 100 µM (inactive) | > 100 µM (inactive) | > 100 µM (inactive) | > 100 µM (inactive) | > 100 µM (inactive) | > 100 µM (inactive) | > 100 µM (inactive) | > 100 µM (inactive) | > 100 µM (inactive) | > 100 µM | > 100 µM (inactive) | > 100 µM (inactive) | > 100 µM (inactive) |  | > 100 µM (inactive)
N#CC1(Cc2ccccc2[N+](=O)[O-])c2ccccc2C2C(N1C(=O)c1ccccc1)C2(Cl)Cl (stereo not drawn) | > 100 µM (inactive) | > 100 µM (inactive) | > 100 µM (inactive) | > 100 µM (inactive) | > 100 µM (inactive) |  | > 100 µM (inactive) | > 100 µM (inactive) | > 100 µM (inactive) | 52.6 µM (inactive) | > 100 µM (inactive) | > 100 µM (inactive) | > 100 µM | > 100 µM (inactive) | > 100 µM (inactive) | > 100 µM (inactive) | > 100 µM (inactive) | > 100 µM (inactive)
CCOC(=N)CC(=O)Nc1cccc(Cl)c1 | > 100 µM (inactive) | > 100 µM (inactive) | > 100 µM (inactive) | > 100 µM (inactive) | > 100 µM (inactive) | > 100 µM (inactive) | > 100 µM (inactive) | > 100 µM (inactive) | > 100 µM (inactive) | > 100 µM (inactive) | > 100 µM (inactive) | > 100 µM (inactive) |  | > 100 µM (inactive) | > 100 µM (inactive) | > 100 µM (inactive) | > 100 µM (inactive) | > 100 µM (inactive)
CCOC(=O)/C(C(C)=O)=C1/N[C@H](C(=O)OCC)CS1 | > 100 µM (inactive) | > 100 µM (inactive) | > 100 µM (inactive) |  |  | > 100 µM (inactive) | > 100 µM (inactive) | > 100 µM (inactive) | > 100 µM (inactive) | > 100 µM (inactive) | > 100 µM (inactive) | > 100 µM (inactive) | > 100 µM | > 100 µM (inactive) | > 100 µM (inactive) | > 100 µM (inactive) | > 100 µM (inactive) | > 100 µM (inactive)
N=C(c1ccccc1)N(c1ccccc1)c1ccccc1 | 87.5 µM (inactive) |  | > 100 µM (inactive) | > 100 µM (inactive) |  | > 100 µM (inactive) | 48.6 µM (inactive) | > 100 µM (inactive) | 93.3 µM (inactive) | > 100 µM (inactive) |  | > 100 µM (inactive) |  | 76.7 µM (inactive) |  | > 100 µM (inactive) | 40.5 µM (inactive) | 
CN1C(=O)C(C)(C)C2(SC(C)(C)C2(C)C)N(C)C1=S (stereo not drawn) | > 100 µM (inactive) | > 100 µM (inactive) | > 100 µM (inactive) |  | 36.1 µM (inactive) | > 100 µM (inactive) | > 100 µM (inactive) | > 100 µM (inactive) | 32 µM (inactive) | > 100 µM (inactive) | > 10 µM (inactive) | > 100 µM (inactive) | > 100 µM | > 100 µM (inactive) | 89.3 µM (inactive) | > 100 µM (inactive) | > 100 µM (inactive) | 53.8 µM (inactive)
CC1=CC2CC(C)=C(CC[C@]3(C)CC[C@H]([C@@H](C)C(=O)O)OO3)C(C)(C)C2CC1 (stereo partly drawn) | 0.2 µM (active) | 1.63 µM (inactive) | 1.53 µM (inactive) | 1.76 µM (inactive) | 2.2 µM (inactive) | 1.75 µM (inactive) | 1.62 µM (inactive) | 1.67 µM (inactive) | 1.91 µM (inactive) | 0.853 µM (active) | 1.26 µM (inactive) | 1.6 µM (inactive) | 0.675 µM | 2.34 µM (inactive) |  | 0.356 µM (active) | 0.457 µM (active) | 0.208 µM (active)
